# Assay results from patent publication US9839642B2, “Beta-tetrazolyl-propionic acids as metallo-beta-lactamase inhibitors” (priority 2014, dated 2017).
# Where two headings read alike, the source gives them in different places.
# Key:
# [1] = target: NDM-1 (Klebsiella pneumoniae, UniProt C7C422); test: Enzyme activity: determination of IC50, fluorescence assay with CCF2-FA substrate; format: biochemical; details: CCF2-FA 1.25 μM, 2 hours at 25° C., read-out: NDM1 IC50
# In short: (§1)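 Enzyme at 1 pM (NDM-1), 2 pM (IMP-1) or 30 pM (VIM-1) was incubated with inhibitor (20 μM to 0.00063 μM) and 1.25 μM CCF2-FA in 100 mM KH2PO4 pH 7, 0.005% Tween-20, 10 μM ZnSO4 for 2 hours at 25° C. Fluorescence was read at ex 405/em 460 nm; IC50 from 4-parameter fit.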
# [2] = target: VIM-1 (Pseudomonas aeruginosa, UniProt A0A0F7KYQ8); test: as above; format: biochemical; details: CCF2-FA 1.25 μM, 2 hours at 25° C., read-out: VIM1 IC50
# In short: as §1
# [3] = target: IMP-1 (Serratia marcescens, UniProt P52699); test: as above; format: biochemical; details: CCF2-FA 1.25 μM, 2 hours at 25° C., read-out: IMP1 IC50
# Chain of IMP-1 (P52699 19-246, looked up, species assumed): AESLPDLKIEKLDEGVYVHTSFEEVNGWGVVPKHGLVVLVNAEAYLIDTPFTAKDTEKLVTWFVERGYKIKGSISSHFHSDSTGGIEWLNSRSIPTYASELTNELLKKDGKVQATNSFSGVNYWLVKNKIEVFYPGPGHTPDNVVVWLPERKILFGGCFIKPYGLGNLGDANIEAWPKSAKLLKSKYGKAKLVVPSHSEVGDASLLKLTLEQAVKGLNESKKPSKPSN
# In short: as §1
# [4] = tested on: Escherichia coli expressing NDM-1 (CLB30016); test: Antibiotic potentiation activity: synergistic concentration (MITC95) with imipenem, growth by OD600; format: cell-based
# In short: (§2)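 Colonies from overnight agar plates (35 °C) were suspended in saline and diluted 1:100 into 1.1× CAMHB. Inhibitor (final 200 μM to 0.195 μM) was combined with imipenem at 1 or 4 μg/ml, incubated 22–24 h at 35 °C, and absorbance read; MITC95 is the lowest inhibitor concentration giving 95% growth inhibition.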
# [5] = tested on: Klebsiella pneumoniae expressing VIM-1 (IHMA599644); test: as above; format: cell-based
# In short: as §2
# [6] = tested on: Serratia marcescens expressing IMP-1 (CL5741); test: as above; format: cell-based
# In short: as §2
# [7] = 95% inhibition of bacterial growth, strain CLB30016
# [8] = 95% inhibition of bacterial growth, strain IHMA599644
# [9] = 95% inhibition of bacterial growth, strain CL5741
# [10] = E. coli CLB30016 (NDM-1), 95% inhibition of growth
# [11] = K. pneumoniae IHMA599644 (VIM-1), 95% inhibition of growth
# [12] = S. marcescens CL5741 (IMP-1), 95% inhibition of growth
# Chain of NDM-1 (C7C422 29-270, looked up, species assumed): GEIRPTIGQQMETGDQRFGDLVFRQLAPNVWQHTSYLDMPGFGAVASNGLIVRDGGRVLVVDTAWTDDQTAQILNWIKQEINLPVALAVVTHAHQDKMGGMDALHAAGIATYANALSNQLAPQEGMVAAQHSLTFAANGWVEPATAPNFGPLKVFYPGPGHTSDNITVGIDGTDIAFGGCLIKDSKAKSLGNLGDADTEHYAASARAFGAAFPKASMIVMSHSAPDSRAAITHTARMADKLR
Compound,IC50 ([1]; enzyme 1 pM),IC50 ([2]; enzyme 30 pM),IC50 ([3]; enzyme 2 pM),"NDM1 EC30016 MITC95 [4, 7]","VIM1 KP599644 MITC95 [5, 8]","IMP1 SM5741 MITC95 [6, 9]",IC50 ([1]; NDM-1 enzyme 1 pM),IC50 ([2]; VIM-1 enzyme 30 pM),IC50 ([3]; IMP-1 enzyme 2 pM),"NDM1 EC30016 MITC95 [4, 10]","VIM1 KP599644 MITC95 [5, 11]","IMP1 SM5741 MITC95 [6, 12]"
"CC(C)C[C@H](C(=O)O)[C@H](Cc1ccc(-c2ccc(N)nc2)nc1)c1nn[nH]n1 [Example 176, (2S)-2-[(1S)-2-(6′-amino-2,3′-bipyridin-5-yl)-1-(2H-tetrazol-5-yl)ethyl]-4-methylpentanoic acid]",25 nM,5.7 nM,150 nM,16 µM,25 µM,6.2 µM,,,,,,
"CCC[C@H](C(=O)O)[C@H](Cc1ccc(C#N)cn1)c1nnn[nH]1 [Example 84, (2S)-2-[(1S)-2-(5-cyanopyridin-2-yl)-1-(1H-tetrazol-5-yl)ethyl]pentanoic acid]",1200 nM,47 nM,> 20000 nM,18.8 µM,50 µM,>200 µM,,,,,,
"CCC[C@H](C(=O)O)[C@H](Cc1ccccc1C1=CCC(N)CC1)c1nn[nH]n1 (stereo partly drawn) [Example 449, 2′-((2S,3S)-3-carboxy-2-(2H-tetrazol-5-yl)hexyl)-2,3,4,5-tetrahydro-[1,1′-biphenyl]-4-aminium 2,2,2-trifluoroacetate]",,,,,,,72.9 nM,87.2 nM,8860 nM,9.375 µM,25 µM,200 µM
"CC(C)C[C@H](C(=O)O)[C@H](Cc1ccc(N[C@H]2CC[C@H](N)C2)nc1)c1nnn[nH]1 [Example 317, (2S)-2-[(1S)-2-(6-{[(1S,3S)-3-aminocyclopentyl]amino}pyridin-3-yl)-1-(1H-tetrazol-5-yl)ethyl]-4-methylpentanoic acid]",,,,,,,350 nM,14 nM,1600 nM,1.6 µM,18.8 µM,12.5 µM
"CC(C)C[C@H](C(=O)O)[C@H](Cc1ccc(Oc2cccc(C3CCCNC3)c2)nc1)c1nn[nH]n1 (stereo partly drawn) [Example 382, (2S)-4-methyl-2-[(1S)-2-[6-(3-piperidin-3-ylphenoxy)pyridin-3-yl]-1-(2H-tetrazol-5-yl)ethyl]pentanoic acid]",,,,,,,140 nM,34 nM,170 nM,12.5 µM,75 µM,12.5 µM
"CC(C)C[C@H](C(=O)O)[C@H](Cc1ccc(Oc2cccc(CN)c2)nc1)c1nn[nH]n1 [Example 400, (2S)-2-[(1S)-2-{6-[3-(aminomethyl)phenoxy]pyridin-3-yl}-1-(2H-tetrazol-5-yl)ethyl]-4-methylpentanoic acid]",,,,,,,340 nM,42 nM,750 nM,12.5 µM,50 µM,25 µM
"CCC[C@H](C(=O)O)[C@H](Cc1ccc(C(N)=O)cn1)c1nnn[nH]1 [Example 93, (S)-2-((S)-2-(5-carbamoylpyridin-2-yl)-1-(1H-tetrazol-5-yl)ethyl) pentanoic acid]",580 nM,90 nM,> 20000 nM,6.2 µM,25 µM,>200 µM,,,,,,
"CC(C)C[C@H](C(=O)O)[C@H](Cc1ccc(N2CCCC(C(C)(C)N)C2)nc1)c1nnn[nH]1 (stereo partly drawn) [Example 322, (2S)-2-[(1S)-2-{6-[3-(1-amino-1-methylethyl)piperidin-1-yl]pyridin-3-yl}-1-(1H-tetrazol-5-yl)ethyl]-4-methylpentanoic acid]",,,,,,,340 nM,11 nM,550 nM,18.8 µM,50 µM,25 µM
"CC(C)C[C@H](C(=O)O)[C@H](Cc1ccc(N2CC(N3CCOCC3)C2)nc1)c1nnn[nH]1 [Example 329, (2S)-4-methyl-2-[(1S)-2-[6-(3-morpholin-4-ylazetidin-1-yl)pyridin-3-yl]-1-(1H-tetrazol-5-yl)ethyl]pentanoic acid]",,,,,,,170 nM,49 nM,450 nM,12.5 µM,>200 µM,25 µM
"CC(C)(C)[C@H](C(=O)O)C(Cc1ccc(N)nc1)c1nnn[nH]1 (stereo partly drawn) [Example 420, (2R,3S)-4-(6-aminopyridin-3-yl)-2-(tert-butyl)-3-(1H-tetrazol-5-yl)butanoic acid]",,,,,,,72.4 nM,19.2 nM,51.7 nM,0.3906 µM,2.344 µM,1.563 µM
